In the assay the target is ATP-dependent translocase ABCB1 (Homo sapiens, UniProt P08183). Put plainly: TP_TRANSPORTER: inhibition of Hydroxydoxorubicin efflux in K562/Adr cells. The assay is classed as functional, cell-based.

Results on one compound are retold here after ChEMBL document CHEMBL2074087, “Inhibition of the P-glycoprotein- and multidrug resistance protein-mediated efflux of anthracyclines and calceinacetoxymethyl ester by PAK-104P” (Eur J Pharmacol, 2000).

The term Ki denotes a dissociation constant, usually derived from enzyme kinetics or from competition with a known ligand.

Each structure is given as a SMILES string.

Sequence of ATP-dependent translocase ABCB1 (P08183 whole entry): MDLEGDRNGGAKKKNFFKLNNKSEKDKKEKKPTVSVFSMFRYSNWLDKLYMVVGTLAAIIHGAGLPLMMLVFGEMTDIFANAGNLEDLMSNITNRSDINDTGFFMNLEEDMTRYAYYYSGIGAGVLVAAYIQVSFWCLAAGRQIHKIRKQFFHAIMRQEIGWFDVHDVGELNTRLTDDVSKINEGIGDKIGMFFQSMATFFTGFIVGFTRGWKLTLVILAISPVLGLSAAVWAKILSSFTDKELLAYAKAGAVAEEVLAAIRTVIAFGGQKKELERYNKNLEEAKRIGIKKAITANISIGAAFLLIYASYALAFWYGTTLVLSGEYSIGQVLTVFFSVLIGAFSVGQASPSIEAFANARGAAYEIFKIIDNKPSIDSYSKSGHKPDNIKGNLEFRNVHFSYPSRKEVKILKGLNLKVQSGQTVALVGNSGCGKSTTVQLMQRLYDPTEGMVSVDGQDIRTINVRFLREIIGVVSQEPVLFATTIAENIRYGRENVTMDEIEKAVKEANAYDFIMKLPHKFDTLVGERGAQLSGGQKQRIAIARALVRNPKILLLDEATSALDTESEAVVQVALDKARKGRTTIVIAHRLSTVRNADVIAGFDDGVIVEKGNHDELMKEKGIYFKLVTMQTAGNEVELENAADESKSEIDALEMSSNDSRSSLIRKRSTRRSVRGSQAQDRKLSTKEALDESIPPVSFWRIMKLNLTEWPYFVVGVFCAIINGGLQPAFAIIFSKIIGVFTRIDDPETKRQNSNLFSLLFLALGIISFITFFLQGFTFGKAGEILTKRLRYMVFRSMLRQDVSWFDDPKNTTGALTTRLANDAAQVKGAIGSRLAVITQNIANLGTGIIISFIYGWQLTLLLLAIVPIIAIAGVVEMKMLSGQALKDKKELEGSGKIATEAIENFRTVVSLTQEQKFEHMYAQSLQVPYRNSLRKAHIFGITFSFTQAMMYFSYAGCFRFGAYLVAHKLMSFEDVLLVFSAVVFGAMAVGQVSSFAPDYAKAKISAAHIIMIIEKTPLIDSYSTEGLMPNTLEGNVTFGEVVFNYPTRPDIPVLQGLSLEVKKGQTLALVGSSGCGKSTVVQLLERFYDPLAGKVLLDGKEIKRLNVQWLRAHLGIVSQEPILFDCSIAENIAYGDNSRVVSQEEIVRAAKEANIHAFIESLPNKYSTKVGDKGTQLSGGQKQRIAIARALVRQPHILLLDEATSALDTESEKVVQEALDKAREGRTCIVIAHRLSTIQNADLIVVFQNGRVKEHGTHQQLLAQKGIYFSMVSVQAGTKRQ

Turning to `Cc1nc(C)c(P2(=O)O[C@H](C)C[C@@H](C)O2)c(-c2cccc([N+](=O)[O-])c2)c1C(=O)OCCN1CCN(C(c2ccccc2)c2ccccc2)CC1` (stereo partly specified), affinity was put at a Ki of 210 nM.
